Test results: PubChem BioAssay (NCI)
Values joined by “and” are separate entries in the source; they are usually repeats but may differ in a detail not shown here. Identical values can stand only once.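 Grown in 96-well plates, cells were treated for 48 hours with each compound at five concentrations. Insufficient inhibition: endpoint recorded as highest concentration tested. GI50: concentration for 50% inhibition of growth. Definition used: TGI = concentration required for complete inhibition of growth.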

Tests used:
Assay in all cases: NCI anticancer screen, dose series, 48 h
K-562 leukemia = system: K-562 leukemia
HS 578T breast = system: HS 578T breast
SK-OV-3 ovarian = system: SK-OV-3 ovarian
M14 melanoma = system: M14 melanoma
HCT-116 colon = system: HCT-116 colon
HCC-2998 colon = system: HCC-2998 colon
IGROV1 ovarian = system: IGROV1 ovarian
NCI-H226 lung = system: NCI-H226 lung
HOP-92 NSCLC = system: HOP-92 NSCLC
NCI-H23 lung = system: NCI-H23 lung

How did the GI50 (K-562 leukemia) turn out when `Cc1ccc(C(=O)NCCCOc2ccc(N3C(N)=NC(N)=NC3(C)C)cc2Cl)cc1S(=O)(=O)F` was run?
Its GI50 is 8.81 µM.

And the TGI (K-562 leukemia)?
The TGI was > 100 µM.

What about the GI50 (HS 578T breast) of the same compound?
The GI50 was > 100 µM.

What about the TGI (HS 578T breast) of the same compound?
Its TGI is > 100 µM.

What about the GI50 (SK-OV-3 ovarian) of the same compound?
The GI50 was > 100 µM.

What about the TGI (SK-OV-3 ovarian) of the same compound?
Its TGI is > 100 µM.

What about the GI50 (M14 melanoma) of the same compound?
Its GI50 is 44.7 µM.

What about the TGI (M14 melanoma) of the same compound?
Its TGI is > 100 µM.

What about the GI50 (HCT-116 colon) of the same compound?
Its GI50 is 15 µM.

And the TGI (HCT-116 colon)?
Its TGI is > 100 µM.

What about the GI50 (HCC-2998 colon) of the same compound?
Its GI50 is 24 µM.

What about the TGI (HCC-2998 colon) of the same compound?
The TGI was > 100 µM.

And the GI50 (IGROV1 ovarian)?
The GI50 was 4.42 µM.

And the TGI (IGROV1 ovarian)?
Its TGI is > 100 µM.

What about the GI50 (NCI-H226 lung) of the same compound?
The GI50 was > 100 µM.

And the TGI (NCI-H226 lung)?
The TGI was > 100 µM.

And the GI50 (HOP-92 NSCLC)?
Its GI50 is > 100 µM.

And the TGI (HOP-92 NSCLC)?
The TGI was > 100 µM.

What about the GI50 (NCI-H23 lung) of the same compound?
The GI50 was 12.8 µM.

And the TGI (NCI-H23 lung)?
The TGI was > 100 µM.

What does the source list for `Cc1ccc(S(=O)(=O)OCC#CCOS(=O)(=O)c2ccc(C)cc2)cc1`?
GI50 (K-562 leukemia): 2.29 µM; TGI (K-562 leukemia): 10.3 µM; GI50 (HS 578T breast): 2.75 µM; TGI (HS 578T breast): 14.2 µM; GI50 (SK-OV-3 ovarian): 6.51 µM; TGI (SK-OV-3 ovarian): 14.9 µM; GI50 (M14 melanoma): 2.59 µM; TGI (M14 melanoma): 7.65 µM; GI50 (HCT-116 colon): 2.08 µM; TGI (HCT-116 colon): 5.47 µM; GI50 (HCC-2998 colon): 2.85 µM; TGI (HCC-2998 colon): 8.73 µM; GI50 (IGROV1 ovarian): 0.992 µM; TGI (IGROV1 ovarian): 2.86 µM; GI50 (NCI-H226 lung): 5.83 µM; TGI (NCI-H226 lung): 12.9 µM; GI50 (HOP-92 NSCLC): 1.97 µM; TGI (HOP-92 NSCLC): 4.17 µM; GI50 (NCI-H23 lung): 1.99 µM; TGI (NCI-H23 lung): 5.04 µM

With `CCOC(=O)Nc1nc2ccccc2[nH]1` as the compound, how does the GI50 (K-562 leukemia) read?
The GI50 was 3.48 µM and 1.85 µM.

And the TGI (K-562 leukemia)?
Its TGI is > 100 µM.

And the GI50 (HS 578T breast)?
The GI50 was 4.3 µM and 3.48 µM.

What about the TGI (HS 578T breast) of the same compound?
Its TGI is > 100 µM.

What about the GI50 (SK-OV-3 ovarian) of the same compound?
Its GI50 is 4.69 µM and 4.19 µM.

And the TGI (SK-OV-3 ovarian)?
The TGI was > 100 µM.

What about the GI50 (M14 melanoma) of the same compound?
The GI50 was 3.48 µM and 3.43 µM.

What about the TGI (M14 melanoma) of the same compound?
Its TGI is > 100 µM.

And the GI50 (HCT-116 colon)?
Its GI50 is 5.34 µM and 4.52 µM.

What about the TGI (HCT-116 colon) of the same compound?
Its TGI is > 100 µM.

And the GI50 (HCC-2998 colon)?
The GI50 was 19.8 µM and 95.3 µM.

And the TGI (HCC-2998 colon)?
Its TGI is > 100 µM.

What about the GI50 (IGROV1 ovarian) of the same compound?
The GI50 was > 26.6 µM and 4.1 µM.

And the TGI (IGROV1 ovarian)?
The TGI was > 100 µM.

What about the TGI (NCI-H226 lung) of the same compound?
Its TGI is > 100 µM.

And the GI50 (HOP-92 NSCLC)?
Its GI50 is > 100 µM.

And the TGI (HOP-92 NSCLC)?
Its TGI is > 100 µM.

What about the GI50 (NCI-H23 lung) of the same compound?
Its GI50 is 8.17 µM and > 21.9 µM.

What about the TGI (NCI-H23 lung) of the same compound?
Its TGI is > 100 µM.
